The target in one assay is Isoleucine--tRNA ligase (Escherichia coli) (UniProt P00956). Description: Inhibitory activity against Escherichia coli Isoleucyl-tRNA synthetase was determined.
Sequence of Isoleucine--tRNA ligase (Escherichia coli) (P00956 whole entry, looked up): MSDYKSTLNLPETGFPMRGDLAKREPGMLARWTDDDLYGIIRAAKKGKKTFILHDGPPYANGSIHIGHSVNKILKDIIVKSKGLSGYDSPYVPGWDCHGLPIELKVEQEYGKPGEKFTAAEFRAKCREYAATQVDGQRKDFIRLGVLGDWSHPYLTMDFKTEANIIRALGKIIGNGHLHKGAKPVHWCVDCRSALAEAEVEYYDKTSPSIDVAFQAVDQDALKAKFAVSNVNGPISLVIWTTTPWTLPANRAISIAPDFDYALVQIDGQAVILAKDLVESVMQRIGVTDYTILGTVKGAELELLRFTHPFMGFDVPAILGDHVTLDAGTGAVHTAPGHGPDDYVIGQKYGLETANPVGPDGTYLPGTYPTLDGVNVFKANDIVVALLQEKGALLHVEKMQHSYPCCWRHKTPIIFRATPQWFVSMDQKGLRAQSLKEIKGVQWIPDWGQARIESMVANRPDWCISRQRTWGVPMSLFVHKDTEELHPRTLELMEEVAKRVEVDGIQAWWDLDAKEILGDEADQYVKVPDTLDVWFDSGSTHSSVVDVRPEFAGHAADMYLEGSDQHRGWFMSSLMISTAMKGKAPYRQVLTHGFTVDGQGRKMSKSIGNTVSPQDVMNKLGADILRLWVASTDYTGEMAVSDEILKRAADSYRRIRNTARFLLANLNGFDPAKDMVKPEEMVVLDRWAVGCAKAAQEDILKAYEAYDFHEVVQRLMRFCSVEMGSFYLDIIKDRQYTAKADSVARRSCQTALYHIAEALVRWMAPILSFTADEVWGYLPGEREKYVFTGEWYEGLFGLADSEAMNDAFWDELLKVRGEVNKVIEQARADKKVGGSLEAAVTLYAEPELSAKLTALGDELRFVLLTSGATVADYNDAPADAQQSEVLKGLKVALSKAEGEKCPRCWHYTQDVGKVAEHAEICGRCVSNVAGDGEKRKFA
Sequence of Methionine--tRNA ligase (Escherichia coli) (P00959 whole entry, looked up): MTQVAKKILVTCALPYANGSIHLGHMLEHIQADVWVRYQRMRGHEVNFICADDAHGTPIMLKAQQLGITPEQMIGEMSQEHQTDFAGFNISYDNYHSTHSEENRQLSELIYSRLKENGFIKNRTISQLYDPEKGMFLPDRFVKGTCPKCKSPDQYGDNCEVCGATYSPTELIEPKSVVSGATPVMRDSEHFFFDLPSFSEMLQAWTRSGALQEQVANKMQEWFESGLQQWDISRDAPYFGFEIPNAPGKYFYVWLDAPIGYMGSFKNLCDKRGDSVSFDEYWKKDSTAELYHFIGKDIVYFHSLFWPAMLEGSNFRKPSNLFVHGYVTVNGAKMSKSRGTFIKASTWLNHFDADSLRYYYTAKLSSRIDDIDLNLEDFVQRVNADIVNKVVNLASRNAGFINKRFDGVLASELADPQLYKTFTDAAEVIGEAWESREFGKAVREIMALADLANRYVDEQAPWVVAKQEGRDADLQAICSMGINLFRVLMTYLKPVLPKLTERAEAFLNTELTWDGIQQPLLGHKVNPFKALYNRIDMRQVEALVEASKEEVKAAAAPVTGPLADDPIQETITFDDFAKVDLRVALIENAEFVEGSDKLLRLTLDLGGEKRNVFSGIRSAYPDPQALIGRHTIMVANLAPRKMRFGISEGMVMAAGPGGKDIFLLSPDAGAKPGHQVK
As for `CC[C@H](C)[C@H](N)C(=O)NS(=O)(=O)OC[C@H]1OC(n2cnc3c(NC)nc(I)nc32)[C@H](O)[C@@H]1O` (stereo partly specified), the IC50 was 22.2 µM.

Consider `C#Cc1nc(N)c2ncn(C3O[C@H](COS(=O)(=O)NC(=O)[C@@H](N)[C@@H](C)CC)[C@@H](O)[C@H]3O)c2n1` (stereo partly specified), for which the IC50 was 0.039 µM.

Compound `CC[C@H](C)[C@H](N)C(=O)NS(=O)(=O)NOC[C@H]1OC(n2cnc3c(N)ncnc32)[C@H](O)[C@@H]1O` (stereo partly specified) yielded an IC50 of 12.8 µM.

As for `CC[C@H](C)[C@H](N)C(=O)NS(=O)(=O)OC[C@H]1OC(n2cnc3c(N)nc(I)nc32)[C@H](O)[C@@H]1O` (stereo partly specified), half-maximal inhibition (IC50) was put at 0.014 µM.

`CC[C@H](C)[C@H](N)C(=O)NS(=O)(=O)OC[C@H]1OC(n2cnc3c(N)nc(Cl)nc32)[C@H](O)[C@@H]1O` (stereo partly specified) showed an IC50 of 5.5 µM. This IC50 is about 390-fold higher than that of the compound before.

`CC[C@H](C)[C@H](N)C(=O)NS(=O)(=O)N(O)C[C@H]1OC(n2cnc3c(N)ncnc32)[C@H](O)[C@@H]1O` (stereo partly specified) came in with an IC50 of 132 µM.

Take `CCCCC#Cc1nc(N)c2ncn(C3O[C@H](COS(=O)(=O)NC(=O)[C@@H](N)[C@@H](C)CC)[C@@H](O)[C@H]3O)c2n1` (stereo partly specified): half-maximal inhibition (IC50) was put at 1.1 µM.

The next assay has as its target Methionine--tRNA ligase (Escherichia coli) (UniProt P00959). As to the kind of experiment: Inhibitory activity against Escherichia coli Methionyl-tRNA synthetase was determined.
`C#Cc1nc(N)c2ncn(C3O[C@H](COS(=O)(=O)NC(=O)[C@@H](N)CCSC)[C@@H](O)[C@H]3O)c2n1` (stereo partly specified) registered an IC50 of 1.1 µM.

As for `CCCCC#Cc1nc(N)c2ncn(C3O[C@H](COS(=O)(=O)NC(=O)[C@@H](N)CCSC)[C@@H](O)[C@H]3O)c2n1` (stereo partly specified), the IC50 is 1.9 µM.

The compound `CSCC[C@H](N)C(=O)NS(=O)(=O)N(O)C[C@H]1OC(n2cnc3c(N)ncnc32)[C@H](O)[C@@H]1O` (stereo partly specified) displayed an IC50 of 106 µM.

In the case of `CSCC[C@H](N)C(=O)NS(=O)(=O)OC[C@H]1OC(n2cnc3c(N)nc(Cl)nc32)[C@H](O)[C@@H]1O` (stereo partly specified), 7.4 µM corresponded to half-maximal inhibition (IC50).

In turn, `CSCC[C@H](N)C(=O)NS(=O)(=O)NOC[C@H]1OC(n2cnc3c(N)ncnc32)[C@H](O)[C@@H]1O` (stereo partly specified) had an IC50 of 19.7 µM.

For the compound `CSCC[C@H](N)C(=O)NS(=O)(=O)OC[C@H]1OC(n2cnc3c(N)nc(I)nc32)[C@H](O)[C@@H]1O` (stereo partly specified), half-maximal inhibition (IC50) required 1.2 µM.

Regarding `CNc1nc(I)nc2c1ncn2C1O[C@H](COS(=O)(=O)NC(=O)[C@@H](N)CCSC)[C@@H](O)[C@H]1O` (stereo partly specified), half-maximal inhibition (IC50) was put at 191 µM.

The next assay shares this target. Described as above. This is another data set of the same source.
The compound `CSCC[C@H](N)C(=O)NS(=O)(=O)OC[C@H]1O[C@@H](n2cnc3c(N)ncnc32)[C@H](O)[C@@H]1O` showed an IC50 of 0.007 µM. That is a single-digit nanomolar value.

For the next assay, the target named is Isoleucine--tRNA ligase (Escherichia coli) (UniProt P00956). Description: Inhibitory activity against Escherichia coli Isoleucyl-tRNA synthetase was determined. This is another data set of the same source.
`CC[C@H](C)[C@H](N)C(=O)NS(=O)(=O)OC[C@H]1O[C@@H](n2cnc3c(N)ncnc32)[C@H](O)[C@@H]1O`: the IC50 was 0.098 µM. This counts as double-digit nanomolar.

Values taken from BindingDB's records for doi:10.1016/s0960-894x(03)00020-9 (Seoul National University, 2003).
